Reference: patent US12520844B2 (Bayer Aktiengesellschaft, priority 2020, dated 2026)

Test: Measurement of Log P values by HPLC on reversed phase columns (EEC directive 79/831 Annex V.A8)
Assay type: physicochemical
Procedure: Measurement of Log P values as provided herein was performed according to EEC directive 79/831 Annex V.A8 by HPLC (High Performance Liquid Chromatography) on reversed phase columns with the following methods: • ^[a] Log P value is determined by measurement of LC-UV, in an acidic range, with 0.1% formic acid in water and acetonitrile as eluent (linear gradient from 10% acetonitrile to 95% acetonitrile). • ^[b] Log P value is determined by measurement of LC-UV, in a neutral range, with 0.001 molar ammonium acetate solution in water and acetonitrile as eluent (linear gradient from 10% acetonitrile to 95% acetonitrile). • ^[c] Log P value is determined by measurement of LC-UV, in an acidic range, with 0.1% phosphoric acid and acetonitrile as eluent (linear gradient from 10% acetonitrile to 95% acetonitrile).
If more than one Log P value is available within the same method, all the values are given and separated by “+”.
Calibration was done with straight-chain alkan2-ones (with 3 to 16 carbon atoms) with known Log P values (measurement of Log P values using retention times with linear interpolation between successive alkanones). Lambda-max-values were determined using UV-spectra from 200 nm to 400 nm and the peak values of the chromatographic signals

SMILES | LogP | chromatographic logP
COc1cc(C(F)CNC(=O)c2nc(C)ncc2Oc2cccc(C3CC3)c2F)ccc1Cl (stereo not drawn) [Compound I-089] | 3.93^[a] | –
Cc1ccc(C(F)(F)CNC(=O)c2nc(C)ncc2Oc2ccc(C)c(Cl)c2)c(C)c1 [Compound I-093] | 4.54^[a] | –
Cc1ncc(Oc2cccc(C3CC3)c2F)c(C(=O)NC2CCOc3ccccc32)n1 (stereo not drawn) [Compound I-046] | 3.54^[a] | –
CSc1ncc(Oc2cccc(C(F)(F)F)c2)c(C(=O)NCC(F)(F)c2ccc(C)cc2C)n1 [Compound I-012] | 4.97^[a] | –
COc1cccc(Oc2cnc(C)nc2C(=O)NCC(F)(F)c2ccc(C)cc2C)c1 [Compound I-019] | 3.76^[a] | –
CCc1ncc(Oc2cccc(C(F)(F)F)c2)c(C(=O)NCC(F)(F)c2ccc(C)cc2C)n1 [Compound I-011] | 4.89^[a] | –
CC(NC(=O)c1nc(F)ncc1Oc1cccc(C(F)(F)F)c1)c1cccc(C(F)(F)F)c1 (stereo not drawn) [Compound I-096] | 2.88^[a] | –
Cc1nnc(Oc2cccc(C(F)(F)F)c2)c(C(=O)NCC(Cl)c2ccc(Cl)cc2Cl)n1 (racemic) [Compound I-020] | 4.34^[a] | –
Cc1ncc(Oc2cccc(C(F)(F)F)c2)c(C(=O)NCC(F)(F)c2ccc(Cl)cc2)n1 [Compound I-002, N-[2-(4-chlorophenyl)-2,2-difluoroethyl]-2-methyl-5-[3-(trifluoromethyl)phenoxy]pyrimidine-4-carboxamide] | – | 4.04
Cc1ncc(Oc2cccc(C3CC3)c2F)c(C(=O)NCCc2ccc(C(F)(F)F)cn2)n1 [Compound I-018] | 3.31^[a] | –
COc1ccc(CCN(C(C)=O)C(=O)c2nc(C)ncc2Oc2cccc(C3CC3)c2F)cc1 [Compound I-067] | 4.01^[a] | –
Cc1ncc(Oc2cccc(C3CC3)c2F)c(C(=O)NC2CCOc3ccc(F)cc32)n1 (racemic) [Compound I-030] | 3.62^[a] | –
Cc1ncc(Oc2cccc(C3CC3)c2F)c(C(=O)N[C@H]2CCOc3ccc(F)cc32)n1 [Compound I-017] | 3.62^[a] | –
CCOC(=O)c1nc(C)nnc1Oc1cccc(C(F)(F)F)c1 [Compound 1-02, ethyl 3-methyl-6-[3-(trifluoromethyl)phenoxy]-1,2,4-triazine-5-carboxylate] | – | 3.18
C#Cc1cccc(Oc2nnc(C3CC3)nc2C(=O)NCC(F)(F)c2ccc(C)cc2C)c1 [Compound I-073] | 4.26^[a] | –
O=C(O)c1nc(C2CC2)ncc1Oc1cccc(C(F)(F)F)c1 [Compound 1-03] | 2.49^[a] | –
Cc1ccc(C(F)(F)CNC(=O)c2nc(C)nnc2Oc2cccc(C3CC3)c2)c(C)c1 [Compound I-117] | 4.33^[a] | –
Cc1ncc(Oc2cccc(C3CC3)c2F)c(C(=O)NCCn2cc(Cl)cn2)n1 [Compound I-086] | 2.88^[a] | –
Cc1nnc(Oc2cccc(C3CC3)c2)c(C(=O)NCC(F)(F)c2ccc(Cl)cc2)n1 [Compound I-028] | 4.01^[a] | –
Cc1ccc(/C(F)=C/NC(=O)c2nc(C3CC3)nnc2Oc2cccc(C)c2F)c(C)c1 [Compound I-107] | 4.85^[a] | –
Cc1ncc(Oc2cccc(C3CC3)c2F)c(C(=O)NC2CCCc3ccc(Br)cc32)n1 (stereo not drawn) [Compound I-045] | 4.55^[a] | –
Cc1ccc(C(F)(F)CNC(=O)c2nc(C)ncc2Oc2cccc([N+](=O)[O-])c2)c(C)c1 [Compound I-090] | 3.75^[a] | –
Cc1ncc(Oc2cccc(C3CC3)c2F)c(C(=O)NC2CCOc3c(C)cccc32)n1 (stereo not drawn) [Compound I-113] | 4.02^[a] | –
Cc1ncc(Oc2cccc(C3CC3)c2F)c(C(=O)NCCOc2ccc(C(F)(F)F)cc2Cl)n1 [Compound I-081] | 4.52^[a] | –
Cc1ccc(C(F)(F)CNC(=O)c2nc(C)ncc2Oc2cccc(C3CC3)c2F)c(C)c1 [Compound I-103] | 4.44^[a] | –
Cc1ncc(Oc2cccc(C3CC3)c2F)c(C(=O)NCCc2ccc3c(c2)OCCO3)n1 [Compound I-077] | 3.30^[a] | –

SMILES | LogP | chromatographic logP
Cc1nnc(Oc2cccc(C(F)(F)F)c2)c(C(=O)NCC(F)(F)c2ccc(Cl)cc2)n1 [Compound I-006] | 3.85^[a] | –
Cc1ncc(Oc2cccc(C3CC3)c2F)c(C(=O)NOCc2ccc(C#N)cc2)n1 [Compound I-097] | 2.87^[a] | –
Cc1ccc(/C(F)=C\NC(=O)c2nc(C3CC3)nnc2Oc2cccc(C)c2F)c(C)c1 [Compound I-051] | 5.16^[a] | –
CCN(CCc1ccccc1)C(=O)c1nc(C)ncc1Oc1cccc(C2CC2)c1F [Compound I-111] | 4.04^[a] | –
Cc1ncc(Oc2cccc(C3CC3)c2F)c(C(=O)NC2CCCc3ccc(Cl)cc32)n1 (stereo not drawn) [Compound I-114] | 4.46^[a] | –
Cc1ccc(C(F)(F)CNC(=O)c2nc(C)ncc2Oc2cccc(C(F)(F)F)c2)c(C)c1 [Compound I-003] | 4.32^[a] | –
Cc1ncc(Oc2cccc(C3CC3)c2F)c(C(=O)NC2CCCc3sc(C4CC4)nc32)n1 (stereo not drawn) [Compound I-078] | 3.81^[a] | –
CCc1ncc(Cl)c(C(=O)NCC(F)(F)c2ccc(C)cc2C)n1 [Compound 3-01] | 3.77^[a] | –
Cc1ccc(C(F)(F)CNC(=O)c2nc(C)ncc2Oc2ccc(Cl)c(C(F)(F)F)c2)c(C)c1 [Compound I-108] | 4.72^[a] | –
Cc1ccc(C(F)(F)CNC(=O)c2nc(C)ncc2Oc2cncc(C(F)(F)F)c2)c(C)c1 [Compound I-068] | 3.73^[a] | –
Cc1ccc(C(F)(F)CNC(=O)c2nc(C)ncc2Oc2ccc3ccccc3c2)c(C)c1 [Compound I-106] | 4.35^[a] | –
Cc1ccc(C(F)(F)CNC(=O)c2nc(C)ncc2Oc2cnc3ccccc3c2)c(C)c1 [Compound I-120] | 3.40^[a] | –
CCOC(=O)c1nc(C2CC2)nnc1Oc1cccc(OC)c1 [Compound 1-12] | 3.37^[a] | –
Cc1ccc(C(F)(F)CNC(=O)c2nc(C)nnc2Oc2cccc(C3CC3)c2)c(Cl)c1 [Compound I-021] | 4.19^[a] | –
Cc1ncc(Oc2cccc(C3CC3)c2F)c(C(=O)NCCc2cccc3[nH]ccc23)n1 [Compound I-042] | 3.23^[a] | –
Cc1ccc(C(F)(F)CNC(=O)c2nc(C)ncc2Oc2cccc(Cl)c2)c(C)c1 [Compound I-013] | 4.30^[a] | –
CCOC(=O)c1nc(C2CC2)nnc1Oc1cccc(C(F)(F)F)c1 [Compound 1-05] | 3.95^[a] | –
Cc1ccc(/C(F)=C\NC(=O)c2nc(C3CC3)nnc2Oc2cccc(C3CC3)c2F)c(C)c1 [Compound I-040] | 5.49^[a] | –
Cc1ccc2c(c1)CCCC2NC(=O)c1nc(C)ncc1Oc1cccc(C2CC2)c1F (stereo not drawn) [Compound I-053] | 4.49^[a] | –
Cc1ccc(C(F)(F)CNC(=O)c2nc(C)ncc2Oc2cccc(OC(F)F)c2)c(C)c1 [Compound I-044] | 3.98^[a] | –
Cc1ncc(Oc2cccc(C(F)(F)F)c2)c(C(=O)NCC(F)(F)c2ccc(Br)cc2Cl)n1 [Compound I-004] | 4.49^[a] | –
Cc1ccc(C(F)(F)CNC(=O)c2nc(C3CC3)nnc2Oc2cccc(C(F)(F)F)c2)c(Cl)c1 [Compound I-130] | 4.66^[a] | –
CON(CCc1ccc(Cl)cc1Cl)C(=O)c1nc(C)ncc1Oc1cccc(C2CC2)c1F [Compound I-034] | 4.91^[a] | –
Cc1ccc(C(F)(F)CNC(=O)c2nc(C3CC3)ncc2Br)c(C)c1 [Compound 3-02] | 4.08^[a] | –
Cc1ccc(C(F)(F)CNC(=O)c2nc(C)ncc2Oc2cccc(C3COC3)c2)c(C)c1 [Compound I-056] | 3.32^[a] | –
